“And” between values parts separate entries of the source, which are not always exact repeats. Equal values may be shown once.
Key:
CD8+ T cells [1] = experiment: Flow cytometric intracellular staining of IFN-γ and IL-13 in CD8+ T cells; format: cell-based, mouse
Description: CD8^+ effector memory T cells were generated in vitro as previously described (Miyahara, N. et al. J. Immunol. 172, 2549-2558 (2004); Miyahara, N. et al. J. Immunol. 174, 4979-4984 (2005)). In brief, mononuclear cells (MNCs) were processed from the spleens of OT-1 mice followed by stimulation of 1 μg/ml SIINFEKL peptide (SEQ ID NO:1) was used to stimulate cells for 1.5 hours. Two days after culture, living cells were re-isolated using histopaque and cultured in complete RPMI 1640 medium that contained recombinant mouse IL-2 (20 ng/ml) (R&D, Minneapolis, Minn.) or IL-2+IL-4 (20 ng/ml) (Peprotech, Rocky Hill, N.J.). For some experiments, AMG was added into the medium together with IL-2 or IL-2+IL-4. Medium with cytokines was changed every day for a further 4 days. The cells were then re-stimulated with 1 μg/ml SIINFEKL (SEQ ID NO:1) in medium containing 2 μM monensin (Calbiochem, La Jolla, Calif.) for 4 hours. […]
For intracellular staining, 1×10^6/ml cells were washed twice with PBS containing 1% BSA, stimulated with 1 μg/ml SIINFEKL in the presence of 2 μM monensin at 37° C. for 4 hours. After fixation with 4% paraformaldehyde (Electron Microscopy Sciences, Hatfield, Pa.) and permeabilization with 0.1% saponin (Sigma, St. Louis, Mo.), cells were washed twice with PBS containing 1% BSA, then incubated with anti-mouse CD16/CD32 (2.4G2) (BD Bioscience, San Jose, Calif.) at 4° C. for 5 minutes, then stained with FITC labeled anti-mouse IFN-γ (XMG 1.2) (eBioscience, San Diego, Calif.) or PerCP-Cy5.5 labeled anti-mouse […] (XMG 1.2) (eBioscience) and PE-labeled anti-mouse IL-13 (eBio13A) (eBioscience). For some experiments, fixed cells were stained with biotin labeled rabbit anti-Cyp11a1/p450 cc polyclonal antibody (Bioss, Woburn, Mass.) followed by PE-Cy5 labeled streptavidin (PE-Cy5-SAv) (eBioscience). Cell staining was monitored on a FACSCalibur (BD Bioscience) and analyzed using Flowjo software (Tree Star, Inc, Ashland, Oreg.).

Cyp11a1 [2] = biological target: T1, Cyp11a1 (Mus musculus, UniProt Q9QZ82); experiment: Pregnenolone ELISA in supernatants of differentiated CD8+ T cells (Cyp11a1 enzymatic activity); format: cell-based; conditions: CD8+ T cells differentiated in IL-2+IL-4, AMG 500 μM; without AMG 424.8±35.5 pg/ml
T1 construct: mononuclear cells (MNCs) were processed from the spleens of OT-1 mice; endogenous in cells
T1 sequence (Q9QZ82 37-526): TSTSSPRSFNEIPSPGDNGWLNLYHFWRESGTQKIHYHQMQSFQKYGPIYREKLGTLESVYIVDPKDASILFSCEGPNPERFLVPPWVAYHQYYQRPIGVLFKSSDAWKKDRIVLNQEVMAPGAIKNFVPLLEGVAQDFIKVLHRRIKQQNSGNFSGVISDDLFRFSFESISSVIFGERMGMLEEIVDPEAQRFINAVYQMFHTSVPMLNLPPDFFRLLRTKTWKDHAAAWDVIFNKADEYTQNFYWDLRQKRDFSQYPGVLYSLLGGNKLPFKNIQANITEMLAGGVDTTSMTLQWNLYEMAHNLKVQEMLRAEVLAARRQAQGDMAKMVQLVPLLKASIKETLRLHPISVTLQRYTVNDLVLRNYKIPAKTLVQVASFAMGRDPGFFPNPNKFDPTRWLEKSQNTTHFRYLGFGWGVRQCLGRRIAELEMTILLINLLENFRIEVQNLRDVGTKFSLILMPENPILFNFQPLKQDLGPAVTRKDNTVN
Description: CD8^+ effector memory T cells were generated in vitro as previously described (Miyahara, N. et al. J. Immunol. 172, 2549-2558 (2004); Miyahara, N. et al. J. Immunol. 174, 4979-4984 (2005)). In brief, mononuclear cells (MNCs) were processed from the spleens of OT-1 mice followed by stimulation of 1 μg/ml [sequence] peptide (SEQ ID NO:1) was used to stimulate cells for 1.5 hours. Two days after culture, living cells were re-isolated using histopaque and cultured in complete RPMI 1640 medium that contained recombinant mouse IL-2 (20 ng/ml) (R&D, Minneapolis, Minn.) or IL-2+IL-4 (20 ng/ml) (Peprotech, Rocky Hill, N.J.). For some experiments, AMG was added into the medium together with IL-2 or IL-2+IL-4. Medium with cytokines was changed every day for a further 4 days. The cells were then re-stimulated with 1 μg/ml [sequence] (SEQ ID NO:1) in medium containing 2 μM monensin (Calbiochem, La Jolla, Calif.) for 4 hours.
CD8^+ T cells generated in the presence of IL-2, IL-2+IL-4, IL-2+AMG, or IL-2+IL-4+AMG were cultured in 6-well plates at 5×10^6/ml for 24 hours. Supernatants were collected. Pregnenolone levels were measured using the Pregnenolone ELISA kit (ALPCO Diagnostics, Salem, N.H.).
The enzymatic activity of Cyp11a1 was assessed using an ELISA assay for detection of pregnenolone levels in cell culture supernatants (Kim, C. J. et al. J. Clin. Endocrinol. Metab. 93, 696-702 (2008)).

Cyp11a1 [3] = biological target: T1, Cyp11a1; experiment: Pregnenolone levels in serum of peanut sensitized and challenged mice (Cyp11a1 enzymatic activity); format: in vivo; conditions: AMG 20 mg/kg, PE/PE mice; PE/PE without AMG 4.69±0.92, PBS/PE 1.99±0.11
Description: AMG was dissolved in 1 M hydrogen chloride and diluted with saline for in vivo studies or diluted with RPMI medium for in vitro study. The final concentration of 1 M hydrogen chloride was less than 1% and 0.05% for in vivo and in vitro, respectively. PE sensitized and challenged mice received different doses (5, 10, 20 mg/kg) of the Cyp11a1 enzyme inhibitor (PE/PE/AMG) by means of gavage using a 22-gauge feeding needle (Fisher Scientific) twice a day during the peanut challenge phase. Controls included PE sensitized and challenged but vehicle (saline) treated (PE/PE/vehicle), or sham sensitized but PE challenged and vehicle-treated (PBS/PE/vehicle) mice.
Pregnenolone levels in serum and cell culture supernatants were measured by ELISA (ALPCO Diagnostics, Salem, N.H.), as described by the manufacturer.

CD8+ T cells [4] = experiment: Flow cytometric intracellular staining of IFN-γ and IL-13 in CD8+ T cells; format: cell-based, mouse; conditions: no SIINFEKL
Cyp11a1 [5] = experiment: Immunoblot analysis of Cyp11a1 protein in CD8+ T cells; format: cell-based, mouse; conditions: IL-2+IL-4, 500 μM AMG, with or without SIINFEKL re-stimulation
Description: In brief, mononuclear cells (MNCs) were processed from the spleens of OT-1 mice followed by stimulation of 1 μg/ml [sequence] peptide (SEQ ID NO:1) was used to stimulate cells for 1.5 hours. Two days after culture, living cells were re-isolated using histopaque and cultured in complete RPMI 1640 medium that contained recombinant mouse IL-2 (20 ng/ml) (R&D, Minneapolis, Minn.) or IL-2+IL-4 (20 ng/ml) (Peprotech, Rocky Hill, N.J.). For some experiments, AMG was added into the medium together with IL-2 or IL-2+IL-4. Medium with cytokines was changed every day for a further 4 days. The cells were then re-stimulated with 1 μg/ml [sequence] (SEQ ID NO:1) in medium containing 2 μM monensin (Calbiochem, La Jolla, Calif.) for 4 hours.
CD8^+ T cells (5×10^6) were lysed with RIPA buffer containing Hale™ protease and phosphatase inhibitor cocktail (Thermo Scientific, Rockford, Ill.) on ice for 30 minutes. Samples were run by sodium dodecyl sulfate polyacrylamide gel electrophoresis (SDS-PAGE) and transferred to nitrocellulose membranes. […] Immunoreactive bands of Western blottings were quantified by densitometric quantification of autoradiographs using Image J (NIMH, Bethesda, Md.), and expressed as relative Cyp11a1 normalized by β-actin.

[6] = IL-2+AMG (500 μM)+SIINFEKL 1 μg/ml
[7] = IL-2+IL-4+AMG (500 μM), no SIINFEKL
[8] = SIINFEKL and IL-2+IL-4, different concentrations of AMG

Q: Which results are given for `CCC1(c2ccc(N)cc2)CCC(=O)NC1=O` (stereo not shown) [AMG, aminoglutethimide]?
A: Overall suppressive or toxic effect on CD8+ T cell cultures (CD8+ T cells [1]; AMG in culture): did not have an overall suppressive or toxic effect; IFN-γ single positive cells (CD8+ T cells [1]; [6]): 78.3 +/− 8.3%; IFN-γ+IL13+ double positive cells (CD8+ T cells [1]; [6]): 9.0 +/− 2.7%; IL-13 single positive cells (CD8+ T cells [1]; [6]): 0.1 +/− 0.1%; IFN-γ+IL13+ double positive cells (CD8+ T cells [1]; IL-2+IL-4+AMG (500 μM)+SIINFEKL, without AMG 8.8±2.3%): 14.7±5.5% and 14.7 +/− 5.5%; IFN-γ single positive cells (CD8+ T cells [1]; IL-2+IL-4+AMG (500 μM)+SIINFEKL, without AMG 14.5±5.8%): 42.4±11.5%; IL-13 single positive cells (CD8+ T cells [1]; IL-2+IL-4+AMG (500 μM)+SIINFEKL, without AMG 35.7±8.2%): 14.7±8.9%; IFN-γ single positive cells (CD8+ T cells [1]; [7]): 0.9 +/− 0.5%; IL-13 single positive cells (CD8+ T cells [1]; [7]): 2.3 +/− 1.5%; IFN-γ-positive cells, dose dependence (CD8+ T cells [1]; [8]): increase in IFN-γ-positive cells; Percentage of IL-13-positive cells, dose dependence (CD8+ T cells [1]; [8]): dramatic dose-dependent decrease in the percentage of IL-13-positive cells; Duration of the effects of AMG on CD8+ T cell conversion before the cells recovered (CD8+ T cells [1]; initial studies): up to forty-eight hours; Pregnenolone levels in cell supernatants (Cyp11a1 [2]): 96.4 ± 35 pg/mL; Pregnenolone levels in serum (Cyp11a1 [3]): 2.98 ± 0.60 ng/mL; IFN-γ single positive cells (CD8+ T cells [4]; IL-2+AMG (500 μM)): 0.2 +/− 0.1%; IFN-γ+IL13+ double positive cells (CD8+ T cells [4]; IL-2+AMG (500 μM)): 0%; IL-13 single positive cells (CD8+ T cells [4]; IL-2+AMG (500 μM)): 0.4 +/− 0.2%; IFN-γ+IL13+ double positive cells (CD8+ T cells [4]; IL-2+IL-4+AMG (500 μM)): 0.1%; Cyp11a1 protein levels (immunoblot) (Cyp11a1 [5]): did not prevent IL-4-induced increases in Cyp11a1 protein levels
